From US20210024545A1, “SUBSTITUTED DIAZAHETERO-BICYCLIC COMPOUNDS AND THEIR USE” (Bayer Aktiengesellschaft, priority 2016, published 2021)

Key:
Assay type in all cases: cell-based
[1] = target: T1, human TASK-3 (Homo sapiens, UniProt Q9NPC2); assay: Inhibition of recombinant TASK-3 in stably transfected CHO cells, KCl-induced depolarization, voltage-sensitive dye (B-2); parameters: expressed in transfected cells; host or cells: stably transfected CHO cells; conditions: depolarization induced by 40 mM potassium chloride, some mean values from multiple determinations
Summary of the method: (§1)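 Stably transfected CHO cells loaded with a voltage-sensitive membrane potential dye. Depolarization was induced with 40 mM KCl, and compound inhibition of it was read by fluorescence. IC50 is the concentration blocking half of the KCl-induced depolarization; some values are means of multiple independent determinations.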

[2] = target: T2, human TASK-1 (Homo sapiens, UniProt O14649); assay: Washout rate after binding to the human TASK-1 channel, two-electrode voltage clamp in Xenopus laevis oocytes (B-4); parameters: expressed in transfected cells; host or cells: Xenopus laevis oocytes injected with cRNA transcribed from the pSGEM vector; conditions: TASK-1 inhibited beforehand by about 40% at the concentration of Table 3 (30-80 nM); restoration of current recorded over at least one hour
From the text: The washout rate is defined as the washout of a compound according to the invention from the TASK-1 channel in % h^−1, measured by means of electrophysiological analysis on TASK-1-expressing Xenopus laevis oocytes via the two-electrode voltage clamp technique according to the description in section B-4.
B-4. In Vitro Electrophysiological Analysis of the Washout Rate of Compounds After Binding to the Human TASK-1 Channel via Two-Electrode Voltage Clamp Technique in Xenopus laevis Oocytes
Xenopus laevis oocytes were obtained from animals that had been anaesthetized with tricaine. Ovaries were treated with collagenase (1 mg/ml, Worthington, type II), stored in OR2 solution (82.5 mM NaCl, 2 mM KC1, 1 mM MgCl2, 5 mM HEPES; pH 7.4) for 120 min and then kept in the ND96 standard solution (96 mM NaCl, 2 mM KC1, 1.8 mM CaCl2, 1 mM MgCl2, 5 mM HEPES; pH 7.5) with additional sodium pyruvate (275 mg/l), theophylline (90 mg/1) and gentamicin (50 mg/1) at 18° C. hTASK-1 and hTASK-3 were subcloned into the pSGEM vector, and cRNA was produced after linearization with NHEI and in vitro transcription with T7 polymerase. Oocytes were injected individually with 5-20 ng of cRNA solution that encodes hTASK-1. Standard two-electrode voltage clamp recordings [Stühmer, Methods Enzymol. 207, 319-339 (1992)] were conducted at room temperature (21-22° C.) with a Turbo-TEC-10CD amplifier (NPI) as described above [Decher et al., FEBS Lett. 492, 84-89 (2001)]. The measurement interval was 2 kHz, and the data were filtered at 0.4 kHz. Substances were applied in a gravity-driven manner via the bath solution, using ND96. In summary, Xenopus laevis oocytes were selected as described above, injected with TASK-1 cRNA and subjected to an electrophysiological analysis via the two-electrode voltage clamp technique.
The TASK-1 channels were inhibited beforehand by a value of about 40% by administration of one of the compounds of the invention. The concentrations shown in Table 3 below were established here, which had been ascertained beforehand by determining the IC50 values in question. Subsequently, the restoration of the TASK-1-related membrane current was recorded in the voltage clamp over at least one hour. This restoration is caused by the washout of the compound in question from the TASK-1 channel
At least 6 oocytes were examined for every compound. The voltage clamp measurements took a total of at least 1.5 hours (administration of the inhibitor plus at least one subsequent hour of washout measurement).

[3] = target: T2, human TASK-1; assay: Inhibition of recombinant TASK-1 in stably transfected CHO cells, KCl-induced depolarization, voltage-sensitive dye (B-2); parameters: expressed in transfected cells; host or cells: stably transfected CHO cells; conditions: depolarization induced by 40 mM potassium chloride, some mean values from multiple determinations
Summary of the method: as §1

[4] = target: T1, human TASK-3; assay: Two-electrode voltage clamp analysis of human TASK-3 channel in Xenopus laevis oocytes (B-1); parameters: expressed in transfected cells; host or cells: Xenopus laevis oocytes injected with cRNA; conditions: Xenopus laevis oocytes injected with TASK-3 cRNA, 21-22° C.
Protocol: (§2) B-1. In Vitro Electrophysiological Analysis of the Human TASK-1 and TASK-3 Channels via Two-Electrode Voltage Clamp Technique in Xenopus laevis Oocytes
(§3) Xenopus laevis oocytes were selected as described elsewhere by way of illustration [Decher et al., FEBS Lett. 492, 84-89 (2001)]. Subsequently, the oocytes were injected with 0.5-5 ng of a cRNA solution coding for TASK-1 or TASK-3. For the electrophysiological analysis of the channel proteins expressed in the oocytes, the two-electrode voltage clamp technique [Stühmer, Methods Enzymol. 207, 319-339 (1992)] was used. The measurements were conducted as described [Decher et al., FEBS Lett. 492, 84-89 (2001)] at room temperature (21-22° C.) using a Turbo TEC 10CD amplifier (NPI), recorded at 2 kHz and filtered with 0.4 kHz. Substance administration was performed using a gravitation-driven perfusion system. Here, the oocyte is located in a measuring chamber and exposed to the solution stream of 10 ml/min The level in the measuring chamber is monitored and regulated by sucking off the solution using a peristaltic pump.

[5] = target: T2, human TASK-1; assay: Two-electrode voltage clamp analysis of human TASK-1 channel in Xenopus laevis oocytes (B-1); parameters: expressed in transfected cells; host or cells: Xenopus laevis oocytes injected with cRNA; conditions: Xenopus laevis oocytes injected with TASK-1 cRNA, 21-22° C.
Protocol: as §2, §3

T2 sequence (O14649 whole entry): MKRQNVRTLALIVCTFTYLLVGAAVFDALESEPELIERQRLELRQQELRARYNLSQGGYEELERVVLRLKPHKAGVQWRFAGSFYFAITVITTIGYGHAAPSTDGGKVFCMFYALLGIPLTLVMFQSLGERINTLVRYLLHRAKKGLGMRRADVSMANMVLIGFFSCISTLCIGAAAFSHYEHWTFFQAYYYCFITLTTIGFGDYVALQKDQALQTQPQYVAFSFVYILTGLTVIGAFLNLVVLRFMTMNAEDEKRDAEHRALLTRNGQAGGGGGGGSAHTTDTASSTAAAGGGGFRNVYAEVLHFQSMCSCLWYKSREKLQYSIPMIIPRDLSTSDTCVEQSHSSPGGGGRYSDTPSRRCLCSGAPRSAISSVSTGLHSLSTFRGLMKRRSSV
T1 sequence (Q9NPC2 whole entry): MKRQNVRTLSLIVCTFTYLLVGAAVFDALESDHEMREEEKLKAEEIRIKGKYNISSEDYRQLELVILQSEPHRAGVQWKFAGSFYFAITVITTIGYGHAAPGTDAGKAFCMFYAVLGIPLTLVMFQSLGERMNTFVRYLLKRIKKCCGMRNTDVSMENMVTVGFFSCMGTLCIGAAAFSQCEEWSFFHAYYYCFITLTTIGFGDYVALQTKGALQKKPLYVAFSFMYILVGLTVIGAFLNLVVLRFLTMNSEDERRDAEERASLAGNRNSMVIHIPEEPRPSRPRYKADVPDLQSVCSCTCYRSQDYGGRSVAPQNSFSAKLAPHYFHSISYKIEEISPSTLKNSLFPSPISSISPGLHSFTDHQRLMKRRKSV

IC50 [4]	IC50 [5]	Compound	IC50 [1]	Washout rate [2]	IC50 [3]
16.3 ± 0.9 nM	27.3 ± 5.4 nM	COc1cccc(C(=O)N2C[C@@H]3CC[C@H]2CN3Cc2c(-c3ccc(Cl)cc3)nc3ccccn23)n1 (single isomer, unassigned; enantiomer 1) [Example 21]	60 nM	40 % h^−1	240 nM
12 ± 3.3 nM	54 ± 16.1 nM	COc1cccc(C(=O)N2CC3CCC2CN3Cc2c(-c3ccc(Cl)cn3)nc3ccccn23)n1 (single isomer, unassigned; enantiomer 1) [Example 26, (−)-(5-{[2-(5-Chloropyridin-2-yl)imidazo[1,2-a]pyridin-3-yl]methyl}-2,5-diazabicyclo[2.2.2]oct-2-yl)(6-methoxypyridin-2-yl)methanone (enantiomer 1)]	42 nM	17 % h^−1	690 nM
		COc1cccc(C(=O)N2C3COCC2CN(Cc2c(-c4ccc(Cl)cc4)nc4ccccn24)C3)n1 [Example 29, (7-{[2-(4-Chlorophenyl)imidazo[1,2-a]pyridin-3-yl]methyl}-3-oxa-7,9-diazabicyclo[3.3.1]non-9-yl)(6-methoxypyridin-2-yl)methanone]	50 nM	17 % h^−1	460 nM
		COc1cccc(C(=O)N2C3CCC2CN(Cc2c(-c4ccc(Cl)cn4)nc4ccccn24)C3)n1 [Example 33, (3-{[2-(5-Chloropyridin-2-yl)imidazo[1,2-a]pyridin-3-yl]methyl}-3,8-diazabicyclo[3.2.1]oct-8-yl)(6-methoxypyridin-2-yl)methanone]	26 nM	55 % h^−1	140 nM
